Measured values published in US20260083687A1, “COMPOUNDS FOR REDUCING LACTATION AND IMPROVING HEALTH” (AHV International B.V., priority 2022, published 2026).
“And” between values parts separate entries of the source, which are not always exact repeats. Identical values can stand only once.

Tested on: cows
Assay: Effect of 40 ml and 80 ml oral DPD capsule vs placebo on the milk yield of cows (Example 1)
Format: in vivo, cow
Parameters: average milk drop (Difference: observed minus expected milk yield) / average milk drop (difference): unit not given here
Settings: for Milk production: 40 ml DPD oral capsule on day 13, individual cows
Method: 15 cows from 3 different farms were used in study 1 and 30 cows from 4 different farms were used in study 2. […] The cows are milked twice a day. The cows were housed in free stables. […] The farmers were not informed which cows were treated.
The placebo group existed of 8 cows, whereas the size of the treated group was 7 cows.
For study 2, the gelatin capsule contained 80 ml of the DPD and the gelatine capsule for the placebo group contained tap water. Nine cows were administered a single dose of DPD 7 to 14 days before the start of their dry-off period and nine cows were administered a single dose of the placebo capsule. The cows were placed randomly in the DPD or placebo group. This was done per group that was dried off at the same time for every farm individually, so that every farm had 50% of the cows in the treatment group and 50% in the control group.
On t =13 days the DPD-containing capsules and the placebo capsules were administered.
The following hypothesis was tested and compared by statistical analysis: H0 is defined as there is no difference between the relative milk production before and after treatment between administering of the DPD bolus and placebo, and H1 is defined as there is a difference between the relative milk production before and after treatment between the DPD and placebo group.
The data were processed as follows: based on the data obtained from day 0, 1, 2, 3 . . . 12 the expected milk yields on day 13, 14, […] were calculated by linear regression for each cow. On t=13 the Placebo-capsule or DPD-containing capsule were administered into the rumen. The predicted data (as if no administration of a Placebo or DPD-containing capsule has taken place) and actual milk yields after administration were compared from t=13 days and the milk drop was calculated. This was performed for all the cows in the tests.
Hereafter, the average milk drop was calculated as the difference between the observed and the expected milk yield per day, which is calculated by comparing the expected milk yields that were obtained via linear regression, and the actual milk yields, obtained after treatment with a Placebo or DPD.
The Null Hypothesis is that the difference is zero. We calculate the P-values for these differences using a permutation test (5000 samples).
The Null Hypothesis was defined that that the difference of the 6 treatment cows and Placebo cows is zero. We calculate the P-values for these differences using a permutation test (5000 samples).

CCCSSCCC [DPD, di-n-propyl disulfide]
Milk production (day 1 (before treatment)): 15.9 and 25.8
Milk production (day 2 (before treatment)): 15.3 and 31.7 and 5.9
Milk production (day 3 (before treatment)): 16 and 30.4 and −1.3
Milk production (day 4 (before treatment)): 15.6 and 29.9
Milk production (day 5 (before treatment)): 15.2 and 27.7
Milk production (day 6 (before treatment)): 14.5 and 28.4 and 23.6 and 24.5
Milk production (day 7 (before treatment)): 14.9 and 29.3 and 24 and 24.4
Milk production (day 8 (before treatment)): 13.4 and 28.1 and 22.4 and 24.6
Milk production (day 9 (before treatment)): 13.6 and 28.4 and 24.4 and 24.7
Milk production (day 10 (before treatment)): 13.8 and 27 and 23.4 and 25.3
Milk production (day 11 (before treatment)): 13.7 and 28.8 and 24.2 and 22.5
Milk production (day 12 (before treatment)): 12.9 and 27 and 21.7 and 22.2
Milk production (day 13 (day of treatment)): 12.9 and 27.7 and 23.2 and 20.4
Milk production (day 14): 12 and 26.4 and 22.2 and 22.3
Milk production (day 15): 11.4 and 23.7 and 23.1 and 20.5
Milk production (day 16): 11.4 and 21.5 and 23.7 and 24.4
Milk production (day 17): 12.8 and 25.4 and 23.1 and 22
Milk production (day 18): 10.9 and 27.5 and 23.2 and 14.8
Milk production (day 19): 11.6 and 25.7 and 22.9 and 9.8
Milk production (day 20): 10.2 and 24.8 and 22.3 and 24.3
Milk production (day 21): 9.9 and 23 and 21.3 and 25.8
effect on milk yield (40 ml DPD vs placebo): not in a significant decrease on milk yield
Mean Difference Treatment − Placebo (40 ml DPD, day 14): −0.3233 litres milk per day per cow
Significant (effect on milk yield vs placebo) (40 ml DPD, day 14): No
average milk drop (Difference: observed minus expected milk yield) (40 ml DPD, day 14): −0.226
Mean Difference Treatment − Placebo (40 ml DPD, day 15): −0.873 litres milk per day per cow
Significant (effect on milk yield vs placebo) (40 ml DPD, day 15): No
average milk drop (Difference: observed minus expected milk yield) (40 ml DPD, day 15): −0.9122
Mean Difference Treatment − Placebo (40 ml DPD, day 16): 1.599 litres milk per day per cow
Significant (effect on milk yield vs placebo) (40 ml DPD, day 16): No
average milk drop (Difference: observed minus expected milk yield) (40 ml DPD, day 16): 1.673
Mean Difference Treatment − Placebo (40 ml DPD, day 17): −0.4365 litres milk per day per cow
Significant (effect on milk yield vs placebo) (40 ml DPD, day 17): No
average milk drop (Difference: observed minus expected milk yield) (40 ml DPD, day 17): 1.201
Mean Difference Treatment − Placebo (40 ml DPD, day 18): −0.5789 litres milk per day per cow
Significant (effect on milk yield vs placebo) (40 ml DPD, day 18): No
average milk drop (Difference: observed minus expected milk yield) (40 ml DPD, day 18): 0.4719
Mean Difference Treatment − Placebo (40 ml DPD, day 19): −0.9982 litres milk per day per cow
Significant (effect on milk yield vs placebo) (40 ml DPD, day 19): No
average milk drop (Difference: observed minus expected milk yield) (40 ml DPD, day 19): −0.2714
Mean Difference Treatment − Placebo (40 ml DPD, day 20): −0.296 litres milk per day per cow
Significant (effect on milk yield vs placebo) (40 ml DPD, day 20): No
average milk drop (Difference: observed minus expected milk yield) (40 ml DPD, day 20): 1.657
Mean Difference Treatment − Placebo (40 ml DPD, day 21): 0.1722 litres milk per day per cow
Significant (effect on milk yield vs placebo) (40 ml DPD, day 21): No
average milk drop (Difference: observed minus expected milk yield) (40 ml DPD, day 21): 1.713
effect on milk yield (80 ml DPD vs placebo): significant decrease in milk yield
recovery of milk yield production (80 ml DPD, after the 3 days following treatment): recovers after this period
Mean Difference Treatment − Placebo (80 ml DPD, day 13): 0.2566 litres milk per day per cow
Significance (effect on milk yield vs placebo) (80 ml DPD, day 13): No
average milk drop (difference) (80 ml DPD, day 13): 0.3592
Mean Difference Treatment − Placebo (80 ml DPD, day 14): −4.56 litres milk per day per cow
Significance (effect on milk yield vs placebo) (80 ml DPD, day 14): Yes
average milk drop (difference) (80 ml DPD, day 14): −5.726
Mean Difference Treatment − Placebo (80 ml DPD, day 15): −6.729 litres milk per day per cow
Significance (effect on milk yield vs placebo) (80 ml DPD, day 15): Yes
average milk drop (difference) (80 ml DPD, day 15): −7.051
Mean Difference Treatment − Placebo (80 ml DPD, day 16): −4.421 litres milk per day per cow
Significance (effect on milk yield vs placebo) (80 ml DPD, day 16): Yes
average milk drop (difference) (80 ml DPD, day 16): −3.891
Mean Difference Treatment − Placebo (80 ml DPD, day 17): −0.4065 litres milk per day per cow
Significance (effect on milk yield vs placebo) (80 ml DPD, day 17): No
average milk drop (difference) (80 ml DPD, day 17): −1.8508
Mean Difference Treatment − Placebo (80 ml DPD, day 18): 0.2326 litres milk per day per cow
Significance (effect on milk yield vs placebo) (80 ml DPD, day 18): No
average milk drop (difference) (80 ml DPD, day 18): −1.4323
Mean Difference Treatment − Placebo (80 ml DPD, day 19): 0.9803 litres milk per day per cow
Significance (effect on milk yield vs placebo) (80 ml DPD, day 19): No
average milk drop (difference) (80 ml DPD, day 19): −0.1878
Mean Difference Treatment − Placebo (80 ml DPD, day 20): 1.162 litres milk per day per cow
Significance (effect on milk yield vs placebo) (80 ml DPD, day 20): No
average milk drop (difference) (80 ml DPD, day 20): 0.262
decrease of milk production compared to the placebo group (average) (80 ml DPD, next 3 days after treatment): 6 litres per day per cow
decreased milk production (DPD, day 2 after treatment): 7.7 L/day
